Structures can show the parent of a compound that is named as a salt.
Target: mouse TAAR1 (Mus musculus (Mouse), UniProt Q923Y8)
Assay: Radioligand binding assay on mouse TAAR1
Conditions: mouse TAAR1, HEK-293 membranes; first value of mouse/rat pair
Description: For the construction of expression plasmids the coding sequences of human, rat and mouse TAAR 1 were amplified from genomic DNA essentially as described by Lindemann et al.. […] PCR products were subcloned into the pIRESneo2 vector (BD Clontech, Palo Alto, Calif.), and expression vectors were sequence verified before introduction in cell lines.
HEK293 cells (ATCC #CRL-1573) were cultured essentially as described by Lindemann et al. (2005). […] After a culture period of about 10 d clones were isolated, expanded and tested for responsiveness to trace amines (all compounds purchased from Sigma) with the cAMP Biotrak Enzyme immunoassay (EIA) System (Amersham) following the non-acetylation EIA procedure provided by the manufacturer.
Radioligand Binding Assay on Mouse TAAR1
Membrane Preparation and Radioligand Binding.
HEK-293 cells stably expressing mouse TAAR1 were maintained at 37° C. and 5% CO2 in DMEM high glucose medium, containing fetal calf serum (10%, heat inactivated for 30 min at 56° C.), penicillin/streptomycin (1%), and 375 μg/ml geneticin (Gibco). Cells were released from culture flasks using trypsin/EDTA, harvested, washed twice with ice-cold PBS (without Ca^2+ and Mg^2+), pelleted at 1′000 rpm for 5 min at 4° C., frozen and stored at −80° C. […] With each new membrane batch the dissociation constant (Kd) was determined via a saturation curve. […]

mouse TAAR1, sequence (Q923Y8 whole entry): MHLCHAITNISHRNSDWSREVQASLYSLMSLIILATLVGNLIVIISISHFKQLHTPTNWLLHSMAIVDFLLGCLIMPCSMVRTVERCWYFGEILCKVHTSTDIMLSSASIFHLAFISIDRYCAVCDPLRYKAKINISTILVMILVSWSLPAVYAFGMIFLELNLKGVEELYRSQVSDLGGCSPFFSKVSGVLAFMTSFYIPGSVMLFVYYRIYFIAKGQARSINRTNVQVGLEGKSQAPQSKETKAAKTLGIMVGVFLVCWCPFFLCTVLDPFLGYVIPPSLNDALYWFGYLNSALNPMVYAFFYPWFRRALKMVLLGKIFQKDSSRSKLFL

Ki: 32 µM
Structure (SMILES): O=C(Nc1ccccc1)Nc1ccc(C2CCNC2)cc1 (racemic) [Example 6, (RS)-1-Phenyl-3-(4-pyrrolidin-3-yl-phenyl)-urea hydrochloride]

Source: US11697636B2, “Substituted benzamides” (Hoffmann-La Roche Inc., priority 2009, dated 2023)
